The subject of test [1] is A549. As to the kind of experiment: cells. To be noted: Homo sapiens, A549, 48 h. The test is classed as functional, cell-based.
Test [2] deals with HCT-116. As to the kind of experiment: Antiproliferative activity against human HCT-116 cells measured after 48 hrs by MTT assay. The following applies: HCT-116, 48 h. The format is functional, cell-based. In general terms: Formazan colour is commonly taken as a measure of viable cells.
Test [3] has as its system SGC-7901. Kind of test: Antiproliferative activity against human SGC-7901 cells measured after 48 hrs by MTT assay. The test is classed as functional, cell-based. The following applies: SGC-7901, 48 h.
Test [4] concerns MDA-MB-231. As to the kind of experiment: Antiproliferative activity against human MDA-MB-231 cells measured after 48 hrs by MTT assay. The test is classed as functional, cell-based. To be noted: MDA-MB-231, 48 h.
Test [5] concerns the target Histone deacetylase. The test is classed as cell-based, Homo sapiens. The following applies: hela.
In test [6] the target is Histone deacetylase 4 (Homo sapiens, UniProt P56524). Kind of test: Inhibition of recombinant human N-terminal GST-fused/C-terminal His-tagged HDAC4 (627 to 1084 residues) expressed in baculovirus infected Sf9 insect cells using fluorogenic HDAC class 2a substrate measured after 30 mins by fluorimetry.
The subject of test [7] is HepG2. As to the kind of experiment: cells. The test is classed as functional, cell-based. The following applies: Homo sapiens, HepG2, 48 h.
The test system of test [8] is MDA-MB-231. As to the kind of experiment: Potency index, ratio of SAHA IC50 to test compound IC50 for antiproliferative activity against human MDA-MB-231 cells. The test is classed as functional.
Test [9] deals with T1, Histone deacetylase 8 (Homo sapiens, UniProt Q9BY41).
T1 sequence (Q9BY41 whole entry): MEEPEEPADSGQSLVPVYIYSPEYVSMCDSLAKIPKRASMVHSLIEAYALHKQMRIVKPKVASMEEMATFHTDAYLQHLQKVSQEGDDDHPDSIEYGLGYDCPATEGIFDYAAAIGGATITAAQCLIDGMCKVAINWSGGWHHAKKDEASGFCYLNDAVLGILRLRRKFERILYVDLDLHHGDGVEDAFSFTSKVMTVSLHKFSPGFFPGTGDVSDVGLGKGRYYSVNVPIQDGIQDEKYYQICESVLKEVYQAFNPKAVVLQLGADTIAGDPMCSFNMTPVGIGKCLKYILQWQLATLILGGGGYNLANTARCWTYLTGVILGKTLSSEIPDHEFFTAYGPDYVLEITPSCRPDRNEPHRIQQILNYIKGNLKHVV
Kind of test: Inhibition of human full-length C-terminal His-tagged HDAC8 expressed in baculovirus infected Sf9 insect cell using fluorogenic HDAC class 2a substrate measured after 30 mins by fluorimetry.

Test [10] addresses T2, Protein deacetylase HDAC6 (Homo sapiens, UniProt Q9UBN7).
T2 sequence (Q9UBN7 whole entry): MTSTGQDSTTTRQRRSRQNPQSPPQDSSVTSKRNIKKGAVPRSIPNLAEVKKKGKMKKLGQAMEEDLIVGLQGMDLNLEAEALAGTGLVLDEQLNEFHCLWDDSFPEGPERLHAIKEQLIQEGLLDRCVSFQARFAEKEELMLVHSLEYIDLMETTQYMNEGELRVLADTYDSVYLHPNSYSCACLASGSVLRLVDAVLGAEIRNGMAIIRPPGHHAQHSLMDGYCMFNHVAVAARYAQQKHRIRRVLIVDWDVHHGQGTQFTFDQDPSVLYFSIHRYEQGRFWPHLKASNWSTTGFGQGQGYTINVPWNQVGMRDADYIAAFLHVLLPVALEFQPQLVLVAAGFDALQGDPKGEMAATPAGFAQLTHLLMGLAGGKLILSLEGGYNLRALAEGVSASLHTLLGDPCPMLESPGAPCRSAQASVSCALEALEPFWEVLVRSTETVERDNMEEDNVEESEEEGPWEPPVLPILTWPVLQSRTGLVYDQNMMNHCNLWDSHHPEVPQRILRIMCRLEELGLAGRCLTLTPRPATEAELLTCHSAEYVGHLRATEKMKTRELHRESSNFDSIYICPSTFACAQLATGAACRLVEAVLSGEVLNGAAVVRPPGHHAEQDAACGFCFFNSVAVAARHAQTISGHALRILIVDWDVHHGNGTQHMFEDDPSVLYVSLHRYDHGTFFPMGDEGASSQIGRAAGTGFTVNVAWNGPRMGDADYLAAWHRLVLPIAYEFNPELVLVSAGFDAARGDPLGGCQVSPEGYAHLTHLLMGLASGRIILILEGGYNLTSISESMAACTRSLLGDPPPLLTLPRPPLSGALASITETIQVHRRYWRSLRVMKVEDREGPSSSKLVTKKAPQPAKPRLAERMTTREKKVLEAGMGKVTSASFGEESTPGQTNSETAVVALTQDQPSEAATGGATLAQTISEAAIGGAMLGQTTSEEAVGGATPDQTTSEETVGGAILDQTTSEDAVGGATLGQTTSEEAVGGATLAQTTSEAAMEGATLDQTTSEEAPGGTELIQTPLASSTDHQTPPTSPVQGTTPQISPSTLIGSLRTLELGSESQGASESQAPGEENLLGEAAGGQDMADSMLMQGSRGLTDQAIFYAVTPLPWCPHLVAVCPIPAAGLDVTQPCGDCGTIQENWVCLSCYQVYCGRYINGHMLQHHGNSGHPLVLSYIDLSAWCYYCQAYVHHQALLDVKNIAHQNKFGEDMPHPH
Kind of test: Inhibition of recombinant human N-terminal GST-tagged HDAC6 (1 to 1215 residues) expressed in Sf9 insect cells using fluorogenic HDAC substrate 3 measured after 30 mins by fluorimetry.

Test [11] deals with Histone deacetylase 1 (Homo sapiens, UniProt Q13547). Kind of test: Inhibition of recombinant human full-length C-terminal Flag-His6-tagged HDAC1 (1 to 482 residues) expressed in Sf9 insect cells using fluorogenic HDAC substrate measured after 30 mins by fluorimetry.
Test [12] deals with Histone deacetylase 3/Nuclear receptor corepressor 2 (HDAC3/NCoR2) (Homo sapiens, UniProt O15379). As to the kind of experiment: biochemical. The arrangement: species or system Sf9.
The test system of test [13] is MDA-MB-231. As to the kind of experiment: Potency index, ratio of MS-275 IC50 to test compound IC50 for antiproliferative activity against human MDA-MB-231 cells. The test is classed as functional.
In test [14] the test system is K562. Kind of test: cells. The format is functional, cell-based. To be noted: Homo sapiens, K562, 48 h.

Each structure is given as a SMILES string. Bounds are passed on as bounds.

Histone deacetylase 3/Nuclear receptor corepressor 2 (HDAC3/NCoR2), sequence (O15379 whole entry): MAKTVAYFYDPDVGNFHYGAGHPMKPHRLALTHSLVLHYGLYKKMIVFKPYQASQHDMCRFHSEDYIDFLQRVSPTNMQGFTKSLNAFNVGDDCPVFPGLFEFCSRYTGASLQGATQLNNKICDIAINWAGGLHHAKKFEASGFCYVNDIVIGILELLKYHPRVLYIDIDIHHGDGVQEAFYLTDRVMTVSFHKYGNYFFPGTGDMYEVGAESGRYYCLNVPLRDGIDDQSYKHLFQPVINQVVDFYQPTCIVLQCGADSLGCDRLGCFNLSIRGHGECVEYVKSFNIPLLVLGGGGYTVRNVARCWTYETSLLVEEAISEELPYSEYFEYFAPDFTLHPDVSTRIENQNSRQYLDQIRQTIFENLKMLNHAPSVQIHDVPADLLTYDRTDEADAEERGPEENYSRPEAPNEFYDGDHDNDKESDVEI
Histone deacetylase 3/Nuclear receptor corepressor 2 (HDAC3/NCoR2), sequence (Q9Y618 whole entry, further chain): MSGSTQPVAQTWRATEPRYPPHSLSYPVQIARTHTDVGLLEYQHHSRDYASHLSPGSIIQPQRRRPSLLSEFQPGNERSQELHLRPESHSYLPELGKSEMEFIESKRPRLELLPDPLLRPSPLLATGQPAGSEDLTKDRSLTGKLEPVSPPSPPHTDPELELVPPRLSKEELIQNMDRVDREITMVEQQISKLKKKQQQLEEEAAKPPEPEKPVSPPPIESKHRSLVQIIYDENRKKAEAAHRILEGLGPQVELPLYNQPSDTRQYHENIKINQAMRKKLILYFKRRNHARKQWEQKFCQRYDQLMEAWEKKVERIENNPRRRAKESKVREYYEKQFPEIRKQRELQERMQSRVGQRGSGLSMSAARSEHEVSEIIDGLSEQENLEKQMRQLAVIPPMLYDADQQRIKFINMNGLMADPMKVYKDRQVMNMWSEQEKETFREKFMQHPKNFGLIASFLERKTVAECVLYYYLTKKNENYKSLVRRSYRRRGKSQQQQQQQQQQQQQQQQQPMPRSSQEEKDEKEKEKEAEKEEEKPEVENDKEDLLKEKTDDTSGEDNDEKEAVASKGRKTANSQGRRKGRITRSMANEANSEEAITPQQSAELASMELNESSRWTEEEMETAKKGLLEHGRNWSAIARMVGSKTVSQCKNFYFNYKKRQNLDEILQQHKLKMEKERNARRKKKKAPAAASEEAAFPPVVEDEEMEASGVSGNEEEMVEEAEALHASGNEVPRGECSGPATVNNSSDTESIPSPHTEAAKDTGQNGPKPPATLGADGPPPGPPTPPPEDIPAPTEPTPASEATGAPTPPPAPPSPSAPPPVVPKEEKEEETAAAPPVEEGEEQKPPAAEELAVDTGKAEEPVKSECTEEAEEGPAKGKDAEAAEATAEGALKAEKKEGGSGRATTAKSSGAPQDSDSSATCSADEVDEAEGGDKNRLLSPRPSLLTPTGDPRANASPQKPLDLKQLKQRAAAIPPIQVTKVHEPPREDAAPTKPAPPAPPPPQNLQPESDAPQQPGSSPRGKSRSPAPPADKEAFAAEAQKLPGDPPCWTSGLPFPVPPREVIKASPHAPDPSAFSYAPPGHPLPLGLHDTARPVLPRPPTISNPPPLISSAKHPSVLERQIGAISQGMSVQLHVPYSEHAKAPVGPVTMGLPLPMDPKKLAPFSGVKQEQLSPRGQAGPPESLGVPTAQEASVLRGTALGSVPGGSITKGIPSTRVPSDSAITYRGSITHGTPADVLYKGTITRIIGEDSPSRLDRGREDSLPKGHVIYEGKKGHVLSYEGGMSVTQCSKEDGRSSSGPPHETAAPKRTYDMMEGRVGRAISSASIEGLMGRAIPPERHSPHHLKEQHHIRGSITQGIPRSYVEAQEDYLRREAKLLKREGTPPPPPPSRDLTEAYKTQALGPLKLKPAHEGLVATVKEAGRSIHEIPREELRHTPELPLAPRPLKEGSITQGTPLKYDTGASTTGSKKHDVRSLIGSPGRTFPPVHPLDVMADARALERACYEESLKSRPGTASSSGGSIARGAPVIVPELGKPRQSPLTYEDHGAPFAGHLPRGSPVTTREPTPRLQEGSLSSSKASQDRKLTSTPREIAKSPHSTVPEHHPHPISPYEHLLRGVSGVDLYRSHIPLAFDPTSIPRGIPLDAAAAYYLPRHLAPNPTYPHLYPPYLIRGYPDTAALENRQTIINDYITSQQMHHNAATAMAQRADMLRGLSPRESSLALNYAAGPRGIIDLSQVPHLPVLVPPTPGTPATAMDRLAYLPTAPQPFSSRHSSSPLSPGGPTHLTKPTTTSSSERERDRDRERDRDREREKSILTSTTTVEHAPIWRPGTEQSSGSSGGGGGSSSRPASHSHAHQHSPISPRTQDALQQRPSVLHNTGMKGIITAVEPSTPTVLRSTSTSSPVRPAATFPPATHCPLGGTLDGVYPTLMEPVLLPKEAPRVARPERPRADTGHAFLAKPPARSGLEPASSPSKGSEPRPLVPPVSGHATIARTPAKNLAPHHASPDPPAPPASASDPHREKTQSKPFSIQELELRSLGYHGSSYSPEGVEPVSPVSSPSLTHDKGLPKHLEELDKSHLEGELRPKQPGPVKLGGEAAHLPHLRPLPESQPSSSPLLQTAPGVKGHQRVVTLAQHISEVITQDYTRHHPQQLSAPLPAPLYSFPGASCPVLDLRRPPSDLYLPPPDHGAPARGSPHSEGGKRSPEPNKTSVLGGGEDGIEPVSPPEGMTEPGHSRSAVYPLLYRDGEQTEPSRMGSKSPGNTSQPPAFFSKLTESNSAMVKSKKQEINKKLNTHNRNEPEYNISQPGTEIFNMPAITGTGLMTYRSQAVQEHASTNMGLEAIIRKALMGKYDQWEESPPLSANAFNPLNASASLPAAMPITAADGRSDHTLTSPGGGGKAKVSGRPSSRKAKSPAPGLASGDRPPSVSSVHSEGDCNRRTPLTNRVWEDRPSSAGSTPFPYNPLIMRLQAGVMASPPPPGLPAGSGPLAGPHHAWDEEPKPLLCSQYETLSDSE
Histone deacetylase 1, sequence (Q13547 whole entry, the tested form may be a part): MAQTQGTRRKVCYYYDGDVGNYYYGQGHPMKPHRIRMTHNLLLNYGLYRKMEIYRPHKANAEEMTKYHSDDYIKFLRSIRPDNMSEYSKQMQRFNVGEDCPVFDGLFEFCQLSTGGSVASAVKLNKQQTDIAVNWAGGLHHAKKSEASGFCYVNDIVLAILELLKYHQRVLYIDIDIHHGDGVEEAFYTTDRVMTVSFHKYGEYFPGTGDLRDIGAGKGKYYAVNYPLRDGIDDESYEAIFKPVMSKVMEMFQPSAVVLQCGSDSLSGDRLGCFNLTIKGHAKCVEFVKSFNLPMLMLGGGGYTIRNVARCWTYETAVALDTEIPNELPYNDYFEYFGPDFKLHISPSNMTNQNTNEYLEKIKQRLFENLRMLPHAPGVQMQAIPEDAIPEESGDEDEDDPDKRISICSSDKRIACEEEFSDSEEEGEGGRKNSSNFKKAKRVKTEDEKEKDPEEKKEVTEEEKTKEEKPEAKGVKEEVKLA
Histone deacetylase 4, sequence (P56524 whole entry, the tested form may be a part): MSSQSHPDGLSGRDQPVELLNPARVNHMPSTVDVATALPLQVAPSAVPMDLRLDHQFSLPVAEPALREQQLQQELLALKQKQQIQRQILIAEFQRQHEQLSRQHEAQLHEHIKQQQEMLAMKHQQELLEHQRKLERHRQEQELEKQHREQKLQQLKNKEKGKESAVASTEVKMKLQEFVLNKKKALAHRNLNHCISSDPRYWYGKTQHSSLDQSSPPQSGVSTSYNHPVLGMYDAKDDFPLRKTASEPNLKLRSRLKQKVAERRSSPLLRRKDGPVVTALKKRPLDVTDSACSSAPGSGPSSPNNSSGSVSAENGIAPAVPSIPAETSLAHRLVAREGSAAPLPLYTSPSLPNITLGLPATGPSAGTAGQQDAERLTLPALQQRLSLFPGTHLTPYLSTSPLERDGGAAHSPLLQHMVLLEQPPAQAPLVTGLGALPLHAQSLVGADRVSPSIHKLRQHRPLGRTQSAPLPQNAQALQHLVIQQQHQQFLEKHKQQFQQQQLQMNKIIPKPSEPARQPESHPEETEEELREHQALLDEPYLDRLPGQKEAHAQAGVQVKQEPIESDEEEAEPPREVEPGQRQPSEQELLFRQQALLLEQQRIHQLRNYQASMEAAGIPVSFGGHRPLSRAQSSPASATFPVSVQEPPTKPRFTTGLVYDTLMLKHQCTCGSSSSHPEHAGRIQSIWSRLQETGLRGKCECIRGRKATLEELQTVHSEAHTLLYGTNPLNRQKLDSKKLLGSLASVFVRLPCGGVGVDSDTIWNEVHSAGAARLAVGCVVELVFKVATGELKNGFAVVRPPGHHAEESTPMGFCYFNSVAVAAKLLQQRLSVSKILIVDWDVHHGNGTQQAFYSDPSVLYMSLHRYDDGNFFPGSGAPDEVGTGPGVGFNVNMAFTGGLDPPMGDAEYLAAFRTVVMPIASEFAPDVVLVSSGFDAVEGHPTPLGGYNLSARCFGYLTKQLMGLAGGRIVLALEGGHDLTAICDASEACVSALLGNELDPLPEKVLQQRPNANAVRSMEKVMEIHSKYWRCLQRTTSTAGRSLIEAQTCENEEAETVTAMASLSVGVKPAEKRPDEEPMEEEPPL

As for `CCCCNc1nc(Cl)nc2c1ncn2CCCC(=O)NCc1ccc(C(=O)Nc2ccccc2N)cc1`, the 50% inhibitory concentration (IC50) – broadly, the point on the concentration scale where inhibition reaches its midpoint – in test [1] amounted to 165 µM; in [2], 11.2 µM; in test [3], 64.1 µM; in [4], 5.64 µM; in [5], 0.95 µM.

Turning to `CCCNc1nc(Cl)nc2c1ncn2Cc1ccc(C(=O)Nc2ccccc2N)cc1`, the IC50 is > 100 µM in [6]; 0.12 µM in test [7]; 1.88 µM in [9]; 43.7 µM in test [10]; 0.309 µM in test [11]; 0.8 µM in test [1]. Further, the IC50 in test [12] was determined as 1.36 µM; in [2], 5.5 µM; in test [3] it was 1.99 µM; in [4] it was 0.05 µM; in test [14] it was 5.43 µM; in test [5], 0.574 µM. The “Ratio IC50” value in [8] and in test [13] was 4 each time.

`CCCNc1nc(Cl)nc2c1ncn2Cc1ccc(C(=O)Nc2ccc(Br)cc2N)cc1` showed an IC50 in test [5] of 9.26 µM.

In test [5], `CCCCCNc1nc(Cl)nc2c1ncn2Cc1ccc(C(=O)Nc2ccc(C)cc2N)cc1` showed an IC50 of 2.03 µM.

As to `Nc1ccccc1NC(=O)c1ccc(CNC(=O)OCc2cccnc2)cc1` [ENTINOSTAT], the concentration for half-maximal inhibition (IC50) in test [7] was determined as 1.76 µM; in test [1], 1.48 µM; in test [2], 2.48 µM; in test [3], 0.98 µM; in [14], 1.19 µM.

Regarding `Cc1ccc(Nc2nc(Cl)nc3c2ncn3CCCCCCCC(=O)NO)cc1`, in test [5], the concentration for half-maximal inhibition (IC50) is 0.0153 µM.

Regarding `CCCNc1nc(Cl)nc2c1ncn2CCCC(=O)NCc1ccc(C(=O)Nc2ccccc2N)cc1`, the concentration for half-maximal inhibition (IC50) in test [1] stood at 514 µM; in [2] it was 21.5 µM; in [3] it was 21.1 µM; in test [4], 28.4 µM; in [5], 1.26 µM.

The compound `CCCNc1nc(Cl)nc2c1ncn2Cc1ccc(C(=O)Nc2ccc(C)cc2N)cc1` yielded a 50% inhibitory concentration (IC50) in test [5] of 3.13 µM.

Consider `CCCCNc1nc(Cl)nc2c1ncn2Cc1ccc(C(=O)Nc2ccc(C)cc2N)cc1`, for which the IC50 in test [5] worked out at 1.01 µM.

Compound `CCNc1nc(Cl)nc2c1ncn2Cc1ccc(C(=O)Nc2ccc(F)cc2N)cc1` registered an IC50 in test [5] of 5.77 µM.

For `CCCCCNc1nc(Cl)nc2c1ncn2CCCC(=O)NCc1ccc(C(=O)Nc2ccccc2N)cc1`, the IC50 in [1] worked out at 177 µM; in test [2], 14.4 µM; in test [3] it was 19.6 µM; in [4] it was 9.68 µM; in test [5], 3.43 µM.

With `CCCCCNc1nc(Cl)nc2c1ncn2Cc1ccc(C(=O)Nc2ccc(Br)cc2N)cc1`, the IC50 in [5] was determined as 18.68 µM.

On to `CCCCNc1nc(Cl)nc2c1ncn2Cc1ccc(C(=O)Nc2ccc(Br)cc2N)cc1`, for which the IC50 in test [5] was 2.04 µM.

Turning to `CCN(CC)c1nc(Cl)nc2c1ncn2Cc1ccc(C(=O)Nc2ccc(F)cc2N)cc1`, the concentration for half-maximal inhibition (IC50) in test [5] stood at 4.24 µM.

For `CCNc1nc(Cl)nc2c1ncn2CCCC(=O)NCc1ccc(C(=O)Nc2ccccc2N)cc1`, the IC50 in test [1] is 149 µM; in test [2] it was 90.8 µM; in test [3], 56.8 µM; in [4], 17.5 µM; in test [5], 2.31 µM.

On to `CCNc1nc(Cl)nc2c1ncn2Cc1ccc(C(=O)Nc2ccccc2N)cc1`, for which the IC50 in test [6] was > 100 µM; in test [7] it was 0.16 µM; in test [9], 2.37 µM; in [10], 31.7 µM; in test [11], 0.0935 µM; in test [1] it was 0.86 µM. Moreover, the IC50 was found to be 1.07 µM in test [12]; 1.53 µM in [2]; 0.99 µM in test [3]; 0.06 µM in test [4]; 2.89 µM in [14]; 1.64 µM in [5]. In addition, the “Ratio IC50” value in [8] and in [13] was 4 each time.

In turn, `Nc1cc(F)ccc1NC(=O)c1ccc(Cn2cnc3c(Cl)nc(Cl)nc32)cc1` showed an IC50 in test [5] of 2.64 µM.

In [5], `CCN(CC)c1nc(Cl)nc2c1ncn2Cc1ccc(C(=O)Nc2ccc(Br)cc2N)cc1` displayed a concentration for half-maximal inhibition (IC50) of 3.11 µM.

`CCNc1nc(Cl)nc2c1ncn2Cc1ccc(C(=O)Nc2ccc(Br)cc2N)cc1`: the IC50 in [5] came to 10.33 µM.

For the compound `CCCCNc1nc(Cl)nc2c1ncn2Cc1ccc(C(=O)Nc2ccc(F)cc2N)cc1`, the IC50 in test [5] stood at 1.28 µM.

Compound `Cc1ccc(NC(=O)c2ccc(Cn3cnc4c(Cl)nc(Cl)nc43)cc2)c(N)c1` displayed an IC50 in test [5] of 25.04 µM.

In turn, `CCCCCNc1nc(Cl)nc2c1ncn2Cc1ccc(C(=O)Nc2ccc(F)cc2N)cc1` came in with an IC50 in test [5] of 2.86 µM.

In test [5], `CNc1nc(Cl)nc2c1ncn2Cc1ccc(C(=O)Nc2ccc(F)cc2N)cc1` returned an IC50 of 1.73 µM.

For `CCNc1nc(Cl)nc2c1ncn2Cc1ccc(C(=O)Nc2ccc(C)cc2N)cc1`, the IC50 in test [5] came out at 5.57 µM.

Compound `CCCNc1nc(Cl)nc2c1ncn2Cc1ccc(C(=O)Nc2ccc(F)cc2N)cc1` showed an IC50 in test [5] of 4.41 µM.

With `Nc1cc(Br)ccc1NC(=O)c1ccc(Cn2cnc3c(Cl)nc(Cl)nc32)cc1`, the concentration for half-maximal inhibition (IC50) in test [5] was 9.1 µM.

On to `CNc1nc(Cl)nc2c1ncn2CCCC(=O)NCc1ccc(C(=O)Nc2ccccc2N)cc1`, for which the IC50 in test [1] came to 97 µM; in test [2], 87.1 µM; in test [3], 27 µM; in [4], 15.5 µM; in [5] it was 5.02 µM.

With `CCN(CC)c1nc(Cl)nc2c1ncn2Cc1ccc(C(=O)Nc2ccc(C)cc2N)cc1`, in test [5], the half-maximal inhibitory concentration (IC50) amounted to 4.33 µM.

In turn, `CNc1nc(Cl)nc2c1ncn2Cc1ccc(C(=O)Nc2ccc(C)cc2N)cc1` came in with an IC50 in test [5] of 1.98 µM.

`CNc1nc(Cl)nc2c1ncn2Cc1ccc(C(=O)Nc2ccc(Br)cc2N)cc1` registered a concentration for half-maximal inhibition (IC50) in test [5] of 2.16 µM.

For the compound `CNc1nc(Cl)nc2c1ncn2Cc1ccc(C(=O)Nc2ccccc2N)cc1`, the IC50 in test [6] was > 100 µM; in [7], 2.29 µM; in test [9], 1.02 µM; in test [10], 21.8 µM; in [11], 0.0774 µM; in test [1], 0.86 µM. Moreover, the IC50 in [12] stood at 1.77 µM; in [2], 1.67 µM; in [3] it was 5.16 µM; in test [4] it was 0.24 µM; in test [14] it was 0.023 µM; in test [5] it was 1.48 µM. The “Ratio IC50” value in test [8] and in test [13] was 4 in each case.

Regarding `CCN(CC)c1nc(Cl)nc2c1ncn2CCCC(=O)NCc1ccc(C(=O)Nc2ccccc2N)cc1`, the 50% inhibitory concentration (IC50) was 392 µM in test [1]; 20.6 µM in test [2]; 59.9 µM in test [3]; 11.1 µM in test [4]; 3.91 µM in test [5].

Values taken from ChEMBL document CHEMBL5154702, “Synthesis and biological evaluation of aminobenzamides containing purine moiety as class I histone deacetylases inhibitors” (Bioorg Med Chem, 2022).
